Here are results for seven molecules from US7432260B2, “Pyrimidine compounds” (Cyclacel Limted, priority 2002, dated 2008).

One test addresses CDK7/cyclin H (Homo sapiens, UniProt P50613). Briefly: CDK7 assay. The test is classed as biochemical. In short, it runs like this: (§1)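 Recombinant human CDK7/cyclin H or CDK9/cyclin T1 (0.5–2 μg) phosphorylated biotinylated CTD heptapeptide-repeat substrate for 45 min at 30 °C in MOPS pH 7.2 buffer with 15 mM MgCl2 and 100 μM ATP plus [γ-32P]ATP. After avidin capture on P81 filters and phosphoric acid washes, 32P incorporation was counted by scintillation.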

The subject of another test is A549. Briefly: 72-h MTT cytotoxicity assay A549. The test is classed as cell-based. Particulars: Homo sapiens, A549, 72 h. In short, it runs like this: (§2)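 Cells were seeded at densities set by doubling time, left overnight at 37° C, then exposed in triplicate to a 1/3 dilution series of compound (DMSO stock) for 72 h at 37° C. Viability was read by MTT reduction (4 h, dark, 37° C) with formazan dissolved in DMSO.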
(In general: Tetrazolium dyes change colour on reduction, which living cells bring about.)

Another test has as its system HT29. Briefly: 72-h MTT cytotoxicity assay HT29. The format is cell-based. Conditions: Homo sapiens, HT-29, 72 h. In short, it runs like this: as §2
The test system of the next test is Saos-2. Briefly: 72-h MTT cytotoxicity assay Saos-2. The test is classed as cell-based. Conditions: Homo sapiens, SAOS-2, 72 h. In short, it runs like this: as §2
A further test has as its system SK-N-MC. Briefly: 72-h MTT cytotoxicity assay SK-N-MC. The test is classed as cell-based. Particulars: Homo sapiens, Table 5, Neuroblastoma. The procedure: (§3) MTT cytotoxicity assay. […] Standard 72-h MTT (thiazolyl blue; 3-[4,5-dimethylthiazol-2-yl]-2,5-diphenyltetrazolium bromide) assays were performed (Haselsberger, K.; Peterson, D. C.; Thomas, D. G.; Darling, J. L. Anti Cancer Drugs 1996, 7, 331-8; Loveland, B. E.; Johns, T. G.; Mackay, I. R.; Vaillant, F.; Wang, Z. X.; Hertzog, P. J. Biochemistry International 1992, 27, 501-10). In short: cells were seeded into 96-well plates according to doubling time and incubated overnight at 37° C. Test compounds were made up in DMSO and a 1/3 dilution series prepared in 100 μL cell media, added to cells (in triplicates) and incubated for 72 ho at 37° C. MTT was made up as a stock of 5 mg/mL in cell media and filter-sterilised. Media was removed from cells followed by a wash with 200 μL PBS.
(§4) MTT solution was then added at 20 μL per well and incubated in the dark at 37° C. for 4 h. MTT solution was removed and cells again washed with 200 μL PBS. MTT dye was solubilised with 200 μL per well of DMSO with agitation.

The test system of the next test is SJSA-1. Briefly: 72-h MTT cytotoxicity assay SJSA-1. The test is classed as cell-based. Conditions: Homo sapiens, SJSA-1, 72 h; Table 5; Osteogenic sarcoma. The procedure:
as §3, §4

The next test has as its target CDK1/cyclin B (Homo sapiens, UniProt P06493). The test can be described thus: Kinase assay CDK1/cyclin B. The test is classed as biochemical. In short, it runs like this:
(§5)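 Radiometric kinase assays with recombinant enzymes (2-4 μg) and polypeptide substrates in β-glycerophosphate/MOPS/EGTA buffer, pH 7.4. Started with 15 mM MgCl2 + 100 μM ATP containing [γ-32P]-ATP, incubated at 30° C; incorporated 32P captured on filterplates and counted. Compounds diluted in 10% DMSO assay buffer.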

The target in another test is CDK4/cyclin D1 (Homo sapiens, UniProt P11802). The test can be described thus: Kinase assay CDK4/cyclin D1. The format is biochemical. In short, it runs like this: as §5
The target in another test is CDK9/cyclin T1 (Homo sapiens, UniProt P50750). Briefly: CDK9 assay. The test is classed as biochemical. In short, it runs like this:
as §1

The target in another test is GSK-3β (Homo sapiens, UniProt P49841). The test can be described thus: Kinase assay GSK-3β. The format is biochemical. In short, it runs like this:
as §5

The target in test [1] is ERK2 (extracellular-signal-regulated kinase 2) (Homo sapiens, UniProt P28482). The test can be described thus: Kinase assay ERK2. The format is biochemical. Conditions: Table 3 selectivity panel; read-out: Kinase specificity IC50 ERK2. The protocol:
Kinase assays. […] This was achieved by measurement of incorporation of radioactive phosphate from ATP into appropriate polypeptide substrates. Recombinant protein kinases and kinase complexes were produced or obtained commercially. Assays were performed using 96-well plates and appropriate assay buffers (typically 25 mM β-glycerophosphate, 20 mM MOPS, 5 mM EGTA, 1 mM DTT, 1 mM […], pH 7.4), into which were added 2-4 μg of active enzyme with appropriate substrates. The reactions were initiated by addition of Mg/ATP mix (15 mM MgCl2+100 μM ATP with 30-50 kBq per well of [γ-^32P]-ATP) and mixtures incubated as required at 30° C. Reactions were stopped on ice, followed by filtration through p81 filterplates or GF/C filterplates (Whatman Polyfiltronics, Kent, UK). After washing 3 times with 75 mM aq orthophosphoric acid, plates were dried, scintillant added and incorporated radioactivity measured in a scintillation counter (TopCount, Packard Instruments, Pangbourne, Berks, UK). Compounds for kinase assay were made-up as 10 mM stocks in DMSO and diluted into 10% DMSO inrassay buffer.

The mark [2] stands for this setting: Table 2, read-out: Kinase Inhibition IC50 CDK7 cyclin H.
The mark [3] stands for this setting: Table 3 selectivity panel, CDK7/cyclin H/MAT 1 complex, read-out: Kinase specificity IC50 CDK7/H.
Where [4] appears, read: Table 2, read-out: Kinase Inhibition IC50 CDK1 cyclin B.
Where [5] appears, read: Table 3 selectivity panel, read-out: Kinase specificity IC50 CDK1/B1.
[6] abbreviates: Table 2, read-out: Kinase Inhibition IC50 CDK4 cyclin D1.
Setting [7] is: Table 3 selectivity panel, read-out: Kinase specificity IC50 CDK4/D1.
Where [8] appears, read: Table 2, read-out: Kinase Inhibition IC50 CDK9 cyclin T1.
The mark [9] stands for this setting: Table 3 selectivity panel, read-out: Kinase specificity IC50 CDK9/T1.
Where [10] appears, read: Table 2, read-out: Kinase Inhibition IC50 GSK-3β.
Where [11] appears, read: Table 3 selectivity panel, glycogen synthase kinase 3β, read-out: Kinase specificity IC50 GSK-3.

Like-named read-outs stand apart in the source and are kept apart here.

Sequence of CDK1/cyclin B (P06493 whole entry): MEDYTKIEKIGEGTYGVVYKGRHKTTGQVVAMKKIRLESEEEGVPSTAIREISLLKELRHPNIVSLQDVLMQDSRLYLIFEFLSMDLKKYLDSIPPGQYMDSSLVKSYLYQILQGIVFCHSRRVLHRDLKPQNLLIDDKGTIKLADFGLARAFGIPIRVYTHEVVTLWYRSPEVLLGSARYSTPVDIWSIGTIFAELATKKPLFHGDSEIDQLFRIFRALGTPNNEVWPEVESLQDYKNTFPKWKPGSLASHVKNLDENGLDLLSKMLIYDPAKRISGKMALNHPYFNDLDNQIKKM
Sequence of CDK1/cyclin B (P14635 whole entry partner): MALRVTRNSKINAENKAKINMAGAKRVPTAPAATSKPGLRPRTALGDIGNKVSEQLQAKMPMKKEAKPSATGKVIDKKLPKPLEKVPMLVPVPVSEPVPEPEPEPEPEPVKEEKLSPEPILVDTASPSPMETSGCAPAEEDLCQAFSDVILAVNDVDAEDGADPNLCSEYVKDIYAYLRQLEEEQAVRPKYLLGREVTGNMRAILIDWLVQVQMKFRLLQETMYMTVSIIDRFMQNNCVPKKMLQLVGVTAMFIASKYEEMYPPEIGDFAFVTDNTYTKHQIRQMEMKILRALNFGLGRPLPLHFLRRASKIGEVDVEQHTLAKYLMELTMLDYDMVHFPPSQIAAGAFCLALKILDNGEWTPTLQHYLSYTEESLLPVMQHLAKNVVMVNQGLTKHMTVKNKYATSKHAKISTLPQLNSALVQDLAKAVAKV
Sequence of CDK4/cyclin D1 (P11802 whole entry): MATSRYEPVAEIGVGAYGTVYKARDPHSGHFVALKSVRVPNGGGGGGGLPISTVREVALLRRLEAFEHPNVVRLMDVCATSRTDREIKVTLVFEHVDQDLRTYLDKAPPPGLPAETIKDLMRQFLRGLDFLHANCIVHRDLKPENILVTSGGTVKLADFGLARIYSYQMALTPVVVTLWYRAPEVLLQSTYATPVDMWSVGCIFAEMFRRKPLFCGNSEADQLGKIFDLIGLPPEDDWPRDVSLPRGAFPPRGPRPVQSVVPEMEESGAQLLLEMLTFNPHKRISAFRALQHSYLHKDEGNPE
Sequence of CDK4/cyclin D1 (P24385 whole entry partner): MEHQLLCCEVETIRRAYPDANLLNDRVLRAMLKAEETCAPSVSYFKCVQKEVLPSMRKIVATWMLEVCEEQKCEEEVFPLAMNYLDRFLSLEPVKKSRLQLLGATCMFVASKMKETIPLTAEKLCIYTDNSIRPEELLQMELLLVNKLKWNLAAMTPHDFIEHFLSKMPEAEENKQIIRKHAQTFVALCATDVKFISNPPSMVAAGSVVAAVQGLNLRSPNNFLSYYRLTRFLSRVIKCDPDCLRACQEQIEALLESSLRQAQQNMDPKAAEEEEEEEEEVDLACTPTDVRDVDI
Sequence of GSK-3β (P49841 whole entry): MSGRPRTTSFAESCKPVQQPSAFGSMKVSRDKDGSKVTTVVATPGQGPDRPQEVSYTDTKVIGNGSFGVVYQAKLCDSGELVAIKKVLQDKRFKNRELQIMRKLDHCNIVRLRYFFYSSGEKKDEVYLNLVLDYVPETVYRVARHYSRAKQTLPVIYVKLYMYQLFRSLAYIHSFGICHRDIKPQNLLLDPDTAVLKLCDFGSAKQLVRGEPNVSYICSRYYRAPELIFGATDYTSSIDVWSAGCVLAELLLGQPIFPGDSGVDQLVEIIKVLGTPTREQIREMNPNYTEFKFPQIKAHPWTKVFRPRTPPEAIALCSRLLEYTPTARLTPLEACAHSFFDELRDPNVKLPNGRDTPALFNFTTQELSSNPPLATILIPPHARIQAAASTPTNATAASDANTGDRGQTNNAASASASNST
Sequence of CDK9/cyclin T1 (P50750 whole entry): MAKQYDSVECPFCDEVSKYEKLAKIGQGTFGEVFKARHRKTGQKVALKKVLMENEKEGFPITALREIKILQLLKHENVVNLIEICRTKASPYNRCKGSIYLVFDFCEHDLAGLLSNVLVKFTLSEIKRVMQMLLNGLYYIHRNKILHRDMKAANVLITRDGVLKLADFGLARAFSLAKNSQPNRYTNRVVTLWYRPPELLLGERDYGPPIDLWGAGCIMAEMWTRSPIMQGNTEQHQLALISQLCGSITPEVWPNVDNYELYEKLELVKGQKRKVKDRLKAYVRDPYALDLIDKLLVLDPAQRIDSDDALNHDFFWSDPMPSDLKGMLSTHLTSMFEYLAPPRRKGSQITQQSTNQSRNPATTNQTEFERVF
Sequence of CDK9/cyclin T1 (O60563 whole entry partner): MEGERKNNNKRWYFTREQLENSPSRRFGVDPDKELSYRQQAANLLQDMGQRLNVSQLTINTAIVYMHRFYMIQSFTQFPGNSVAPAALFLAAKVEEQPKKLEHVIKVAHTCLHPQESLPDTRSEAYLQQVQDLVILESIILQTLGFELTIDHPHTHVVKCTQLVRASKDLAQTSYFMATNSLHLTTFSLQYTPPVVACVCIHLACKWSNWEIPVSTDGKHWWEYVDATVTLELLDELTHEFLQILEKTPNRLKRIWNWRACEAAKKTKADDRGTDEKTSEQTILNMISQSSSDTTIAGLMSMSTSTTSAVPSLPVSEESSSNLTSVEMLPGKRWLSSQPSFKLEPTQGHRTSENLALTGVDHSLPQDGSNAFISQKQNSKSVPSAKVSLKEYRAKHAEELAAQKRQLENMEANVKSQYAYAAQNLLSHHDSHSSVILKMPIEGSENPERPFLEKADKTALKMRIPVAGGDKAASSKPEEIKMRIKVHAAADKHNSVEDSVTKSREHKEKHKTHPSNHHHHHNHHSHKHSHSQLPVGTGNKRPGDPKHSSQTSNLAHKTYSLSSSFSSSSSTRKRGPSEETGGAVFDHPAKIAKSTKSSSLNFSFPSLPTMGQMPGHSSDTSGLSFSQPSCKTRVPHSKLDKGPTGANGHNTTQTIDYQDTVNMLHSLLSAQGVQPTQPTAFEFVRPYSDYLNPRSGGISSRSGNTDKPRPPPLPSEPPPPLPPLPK
Sequence of CDK7/cyclin H (P50613 whole entry): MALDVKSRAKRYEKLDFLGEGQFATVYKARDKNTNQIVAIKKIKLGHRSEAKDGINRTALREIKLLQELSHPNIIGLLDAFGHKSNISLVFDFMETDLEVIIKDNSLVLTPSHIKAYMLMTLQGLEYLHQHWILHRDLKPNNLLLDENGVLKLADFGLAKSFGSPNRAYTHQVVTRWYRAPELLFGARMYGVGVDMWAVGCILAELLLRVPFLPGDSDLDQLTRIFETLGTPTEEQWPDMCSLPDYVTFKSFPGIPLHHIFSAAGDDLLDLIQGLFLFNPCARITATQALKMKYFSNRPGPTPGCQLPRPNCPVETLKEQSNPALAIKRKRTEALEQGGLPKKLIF
Sequence of ERK2 (extracellular-signal-regulated kinase 2) (P28482 whole entry, species assumed): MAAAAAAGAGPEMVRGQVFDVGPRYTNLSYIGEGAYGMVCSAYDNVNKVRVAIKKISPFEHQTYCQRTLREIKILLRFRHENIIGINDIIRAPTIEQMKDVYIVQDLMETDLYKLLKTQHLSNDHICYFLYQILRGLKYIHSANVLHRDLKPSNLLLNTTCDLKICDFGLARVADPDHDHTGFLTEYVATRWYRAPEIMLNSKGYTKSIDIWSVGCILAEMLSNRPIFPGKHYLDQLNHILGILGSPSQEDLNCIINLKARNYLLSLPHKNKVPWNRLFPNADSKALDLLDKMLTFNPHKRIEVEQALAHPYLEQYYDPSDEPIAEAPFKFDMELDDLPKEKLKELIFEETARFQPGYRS

With `Cc1nc(N)sc1-c1ccnc(Nc2ccc(N3CCOCC3)cc2)n1` [Compound 1, [4-(2-Amino-4-methyl-thiazol-5-yl)-pyrimidin-2-yl]-(4-morpholin-4-yl-phenyl)-amine], the IC50 came out at 30000 nM on CDK7/cyclin H (setting [2]); 56000 nM on CDK7/cyclin H (setting [3]); 2100 nM in the test on A549 (Table 4); 1000 nM in the test with A549 (Table 5, Lung); 1700 nM in the test on HT29 (Table 4); 1100 nM in the test with HT29 (Table 5, Colon). For the same molecule, the IC50 in the test with Saos-2 (Table 4) is 1900 nM; with Saos-2 (Table 5, Bone osteosarcoma), 100 nM; in the test on SK-N-MC, 300 nM; in the test with SJSA-1, above 5000 nM.
As to `CNc1nc(C)c(-c2ccnc(Nc3ccc(N4CCOCC4)cc3)n2)s1` [Compound 3, [4-(2-N-Methylamino-4-methyl-thiazol-5-yl)-pyrimidin-2-yl]-(4-morpholinophenyl)-amine], the IC50 at CDK1/cyclin B (setting [4]) was 71000 nM; at CDK1/cyclin B (setting [5]), above 100000 nM; at CDK4/cyclin D1 (setting [6]), 1400 nM; at CDK4/cyclin D1 (setting [7]) it was 150 nM; on CDK7/cyclin H (setting [2]) it was 106000 nM; on CDK7/cyclin H (setting [3]) it was above 100000 nM. Also, the IC50 on CDK9/cyclin T1 (setting [8]) was 12000 nM; on CDK9/cyclin T1 (setting [9]), 8500 nM; on GSK-3β (setting [10]), above 100000 nM; at GSK-3β (setting [11]) it was above 100000 nM; in test [1], above 100000 nM; in the test on A549 (Table 4), 3700 nM. For the same molecule, the figures for the IC50 in the test with HT29 (Table 4) and with Saos-2 (Table 4) were 2800 nM and 3100 nM, respectively.
Turning to `CCNc1nc(C)c(-c2ccnc(Nc3ccc(N4CCOCC4)cc3)n2)s1` [Compound 4, [4-(2-Ethylamino-4-methyl-thiazol-5-yl)-pyrimidin-2-yl]-(4-morpholin-4-yl-phenyl)-amine], the IC50 at CDK1/cyclin B (setting [4]) is 30000 nM; on CDK4/cyclin D1 (setting [6]), 430 nM; on CDK7/cyclin H (setting [2]) it was 12000 nM; at CDK9/cyclin T1 (setting [8]), 1800 nM; at GSK-3β (setting [10]), above 100000 nM; in the test with A549 (Table 4) it was 770 nM. For the same molecule, the IC50 in the test on HT29 (Table 4) turned out to be 920 nM; in the test on Saos-2 (Table 4), 1200 nM.
As to `CNc1nc(C)c(-c2ccnc(Nc3ccc(N4CCN(Cc5ccccc5)CC4)cc3)n2)s1` [Compound 11, [4-(4-Benzyl-piperazin-1-yl)-phenyl]-[4-(4-methyl-2-methylamino-thiazol-5-yl)-pyrimidin-2-yl]-amine], the IC50 on CDK1/cyclin B (setting [4]) amounted to 2400 nM; on CDK1/cyclin B (setting [5]), 2400 nM; at CDK4/cyclin D1 (setting [6]) it was 9.8 nM; on CDK4/cyclin D1 (setting [7]), 9.8 nM; on CDK7/cyclin H (setting [2]), 19 nM; on CDK7/cyclin H (setting [3]), 19 nM. Besides, the IC50 on CDK9/cyclin T1 (setting [8]) is 1100 nM; on CDK9/cyclin T1 (setting [9]), 1100 nM; on GSK-3β (setting [10]) it was 6000 nM; at GSK-3β (setting [11]), 6000 nM; in test [1], above 100000 nM; with A549 (Table 4), 2200 nM. Besides, the IC50 in the test on A549 (Table 5, Lung) was 2200 nM; in the test on HT29 (Table 4), 1600 nM; with HT29 (Table 5, Colon), 1600 nM; with Saos-2 (Table 4), 3600 nM; with Saos-2 (Table 5, Bone osteosarcoma), 3700 nM; in the test with SK-N-MC, 600 nM. In addition, in the test with SJSA-1, the IC50 was found to be 4300 nM.
In the case of `Cc1nc(NC(=O)[C@H](N)[C@@H](C)O)sc1-c1ccnc(Nc2cccc([N+](=O)[O-])c2)n1` [Compound 15, (2R,3R)-2-Amino-3-hydroxy-N-{4-methyl-5-[2-(3-nitro-phenylamino)-pyrimidin-4-yl]-thiazol-2-yl}-butyramide], the IC50 worked out at 5400 nM on CDK1/cyclin B (setting [4]); 1600 nM at CDK1/cyclin B (setting [5]); 2000 nM on CDK4/cyclin D1 (setting [6]); 1600 nM at CDK4/cyclin D1 (setting [7]); 340 nM on CDK7/cyclin H (setting [2]); 390 nM on CDK7/cyclin H (setting [3]). Moreover, the IC50 at CDK9/cyclin T1 (setting [8]) is 70 nM; on CDK9/cyclin T1 (setting [9]) it was 110 nM; at GSK-3β (setting [10]) it was 610 nM; at GSK-3β (setting [11]), 540 nM; in test [1], above 100000 nM; with A549 (Table 4) it was 1100 nM. Further, the IC50 came out at 600 nM in the test on A549 (Table 5, Lung); 1000 nM with HT29 (Table 4); 500 nM with HT29 (Table 5, Colon); 1900 nM in the test with Saos-2 (Table 4); 400 nM in the test on Saos-2 (Table 5, Bone osteosarcoma); 500 nM in the test with SK-N-MC. Moreover, in the test on SJSA-1, the IC50 was determined as 1900 nM.
Take `CC[C@@H](N)C(=O)Nc1nc(C)c(-c2ccnc(Nc3cccc([N+](=O)[O-])c3)n2)s1` [Compound 16, (2R)-2-Amino-N-{4-methyl-5-[2-(3-nitro-phenylamino)-pyrimidin-4-yl]-thiazol-2-yl}-butyramide]: the IC50 on CDK1/cyclin B (setting [4]) worked out at 2800 nM; on CDK1/cyclin B (setting [5]), 2800 nM; on CDK4/cyclin D1 (setting [6]), 6700 nM; at CDK4/cyclin D1 (setting [7]) it was 6700 nM; on CDK7/cyclin H (setting [2]), 1100 nM; at CDK7/cyclin H (setting [3]), 970 nM. In addition, the IC50 at CDK9/cyclin T1 (setting [8]) is 110 nM; at CDK9/cyclin T1 (setting [9]), 200 nM; on GSK-3β (setting [10]) it was 680 nM; at GSK-3β (setting [11]), 680 nM; in test [1], above 100000 nM; in the test on A549 (Table 4) it was 530 nM. Besides, the IC50 is 500 nM in the test on A549 (Table 5, Lung); 290 nM in the test on HT29 (Table 4); 300 nM with HT29 (Table 5, Colon); 600 nM with Saos-2 (Table 5, Bone osteosarcoma); 400 nM in the test on SK-N-MC; 1000 nM in the test on SJSA-1.
With `Cc1nc(C)c(-c2ccnc(Nc3ccc(NC(=O)CN4CCCC4)cc3)n2)s1` [Compound 53, N-{4-[4-(2,4-Dimethyl-thiazol-5-yl)-pyrimidin-2-ylamino]-phenyl}-2-pyrrolidin-1-yl-acetamide], the IC50 on CDK1/cyclin B (setting [4]) amounted to 5200 nM; at CDK4/cyclin D1 (setting [6]), 40 nM; at CDK7/cyclin H (setting [2]), 440 nM; at CDK9/cyclin T1 (setting [8]) it was 93 nM; on GSK-3β (setting [10]) it was 23000 nM; in the test with A549 (Table 4) it was 770 nM. For the same molecule, the IC50 with HT29 (Table 4) worked out at 950 nM; in the test with Saos-2 (Table 4), 530 nM.
